Source: patent publication US10154957B2, “Microneedle device having a peptide therapeutic agent and an amino acid and methods of making and using the same” (3M INNOVATIVE PROPERTIES COMPANY, priority 2011, dated 2018)
Marks after values point to notes of the source that are not given here.

Assay: Percent purity of PTHrP analogue in coating with varying His-HCl concentration, three storage conditions (HPLC)
Format: physicochemical
Conditions: peptide 10 mg/mL in PBS
Description: The protein or polypeptide content in the formulation coated on the microneedle arrays was determined using an Agilent 1100 HPLC system (Agilent Technologies, Wilmington, Del.) equipped with a binary pump, well-plated thermostated autosampler, thermostated column compartment, and a diode array UV detector. A Zorbax 300SB-C8 column (Agilent Technologies, Wilmington, Del.) having a 5 μm particle size and 2.1×150 mm inner diameter was used for the separations. The column was maintained at 50° C. The mobile phase consisted of two eluents. Eluent A was 0.1% TFA (trifluoroacetic acid) in water and eluent B was 0.1% TFA in acetonitrile (Spectrum Chemical, New Brunswick, N.J.). A linear gradient from 80/20 to 50/50 (A/B) was applied over 30 minutes. The flow rate was 0.4 mL/minute and the UV detection wavelength was set at 214 nm. The total run time was 34 minutes and the sample injection volume was 15 μL.
Five sample formulations were prepared containing 10 mg/mL of [Glu^22,25,Leu^23,28,31,Aib^29,Lys^26,30]hPTHrP(1-34)NH2 and varying concentrations of L-histidine monohydrochloride (His-HCl) in PBS. The concentrations of His-HCl in the sample formulations range from 1 mg/mL to 10 mg/mL. A control formulation was also prepared containing 10 mg/mL of [Glu^22,25,Leu^23,28,31,Aib^29,Lys^26,30]hPTHrP(1-34)NH2 in PBS. […] Microneedle arrays were coated with either the sample or the control formulations. The coating was applied by dropwise addition of 40 μL of the formulation to the portion of the array defined by the octagon shaped pattern of microneedles. The flood coated arrays (both sample and control formulation coated) were dried in an oven at 35° C. for 1.5 hours followed by 30° C. for 15 hours.
After drying, the coated arrays were placed in a storage chamber that was maintained at one of three storage conditions: 40° C./96% RH (storage condition A); 25° C./60% RH (storage condition B); or 5° C./ambient RH. The [Glu^22,25,Leu^23,28,31,Aib^29,Lys^26,30]hPTHrP(1-34)NH2 content of the coated arrays was determined following storage in a chamber for 1 day, 3 days, 7 days, 14 days, 21 days, 28 days, and 2 months. The initial [Glu^22,25,Leu^23,28,31,Aib^29,Lys^26,30]hPTHrP(1-34)NH2 content was also determined using freshly coated arrays (both sample and control formulation coated). The arrays used to determine initial content were stored in a refrigerator at about 4° C. and analyzed within one day of being prepared. At the designated time point, an array was taken from the chamber and washed with PBS (3.5 mL) to remove the coating from the array. An aliquot of the resulting wash solution was analyzed for [Glu^22,25,Leu^23,28,31,Aib^29,Lys^26,30]hPTHrP(1-34)NH2 content using the HPLC method described above. The results were quantified against an external standard of [Glu^22,25,Leu^23,28,31,Aib^29,Lys^26,30]hPTHrP(1-34)NH2. At each time point, the percent purity of [Glu^22,25,Leu^23,28,31,Aib^29,Lys^26,30]hPTHrP(1-34)NH2 in the coating was determined by measuring the peak area for [Glu^22,25,Leu^23,28,31,Aib^29,Lys^26,30]hPTHrP(1-34)NH2 in the selected coating and dividing it by the total peak area measured for all [Glu^22,25,Leu^23,28,31,Aib^29,Lys^26,30]hPTHrP(1-34)NH2 related peaks.

[Glu^22,25,Leu^23,28,31,Aib^29,Lys^26,30]hPTHrP(1-34)NH2
Percent Purity of [Glu^22,25, Leu^23,28,31, Aib^29, Lys^26,30]hPTHrP(1-34)NH2 (Histidine-HCl 3.3 mg/mL, Storage Condition B (25° C./60% RH), Initial): 99.3%
Percent Purity of [Glu^22,25, Leu^23,28,31, Aib^29, Lys^26,30]hPTHrP(1-34)NH2 (Histidine-HCl 5 mg/mL, Storage Condition A (40° C./96% RH), Day 1): 98.7%
Percent Purity of [Glu^22,25, Leu^23,28,31, Aib^29, Lys^26,30]hPTHrP(1-34)NH2 (Histidine-HCl 5 mg/mL, Storage Condition A (40° C./96% RH), Day 3): 97.5%
Percent Purity of [Glu^22,25, Leu^23,28,31, Aib^29, Lys^26,30]hPTHrP(1-34)NH2 (Histidine-HCl 5 mg/mL, Storage Condition A (40° C./96% RH), Day 7): 92.0%
Percent Purity of [Glu^22,25, Leu^23,28,31, Aib^29, Lys^26,30]hPTHrP(1-34)NH2 (Histidine-HCl 5 mg/mL, Storage Condition A (40° C./96% RH), Day 14): 65.1%
Percent Purity of [Glu^22,25, Leu^23,28,31, Aib^29, Lys^26,30]hPTHrP(1-34)NH2 (Histidine-HCl 5 mg/mL, Storage Condition A (40° C./96% RH), Day 21, the sample for analysis contained insoluble impurities): 33.8^(a) percent
Percent Purity of [Glu^22,25, Leu^23,28,31, Aib^29, Lys^26,30]hPTHrP(1-34)NH2 (Histidine-HCl 5 mg/mL, Storage Condition A (40° C./96% RH), Initial): 99.0%
Percent Purity of [Glu^22,25, Leu^23,28,31, Aib^29, Lys^26,30]hPTHrP(1-34)NH2 (Histidine-HCl 5 mg/mL, Storage Condition B (25° C./60% RH), 2 months): 98.4%
Percent Purity of [Glu^22,25, Leu^23,28,31, Aib^29, Lys^26,30]hPTHrP(1-34)NH2 (Histidine-HCl 5 mg/mL, Storage Condition B (25° C./60% RH), Day 3): 98.9%
Percent Purity of [Glu^22,25, Leu^23,28,31, Aib^29, Lys^26,30]hPTHrP(1-34)NH2 (Histidine-HCl 5 mg/mL, Storage Condition B (25° C./60% RH), Day 7): 98.9%
Percent Purity of [Glu^22,25, Leu^23,28,31, Aib^29, Lys^26,30]hPTHrP(1-34)NH2 (Histidine-HCl 5 mg/mL, Storage Condition B (25° C./60% RH), Day 14): 98.9%
Percent Purity of [Glu^22,25, Leu^23,28,31, Aib^29, Lys^26,30]hPTHrP(1-34)NH2 (Histidine-HCl 5 mg/mL, Storage Condition B (25° C./60% RH), Day 28): 98.8%
Percent Purity of [Glu^22,25, Leu^23,28,31, Aib^29, Lys^26,30]hPTHrP(1-34)NH2 (Histidine-HCl 5 mg/mL, Storage Condition B (25° C./60% RH), Initial): 99.0%
Percent Purity of [Glu^22,25, Leu^23,28,31, Aib^29, Lys^26,30]hPTHrP(1-34)NH2 (Histidine-HCl 10 mg/mL, Storage Condition A (40° C./96% RH), Day 1): 98.7%
Percent Purity of [Glu^22,25, Leu^23,28,31, Aib^29, Lys^26,30]hPTHrP(1-34)NH2 (Histidine-HCl 10 mg/mL, Storage Condition A (40° C./96% RH), Day 3): 98.5%
Percent Purity of [Glu^22,25, Leu^23,28,31, Aib^29, Lys^26,30]hPTHrP(1-34)NH2 (Histidine-HCl 10 mg/mL, Storage Condition A (40° C./96% RH), Day 7): 97.7%
Percent Purity of [Glu^22,25, Leu^23,28,31, Aib^29, Lys^26,30]hPTHrP(1-34)NH2 (Histidine-HCl 10 mg/mL, Storage Condition A (40° C./96% RH), Day 14): 94.9%
Percent Purity of [Glu^22,25, Leu^23,28,31, Aib^29, Lys^26,30]hPTHrP(1-34)NH2 (Histidine-HCl 10 mg/mL, Storage Condition A (40° C./96% RH), Day 21): 80.8%
Percent Purity of [Glu^22,25, Leu^23,28,31, Aib^29, Lys^26,30]hPTHrP(1-34)NH2 (Histidine-HCl 10 mg/mL, Storage Condition A (40° C./96% RH), Initial): 99.0%
Percent Purity of [Glu^22,25, Leu^23,28,31, Aib^29, Lys^26,30]hPTHrP(1-34)NH2 (Histidine-HCl 10 mg/mL, Storage Condition B (25° C./60% RH), Day 3): 98.9%
Percent Purity of [Glu^22,25, Leu^23,28,31, Aib^29, Lys^26,30]hPTHrP(1-34)NH2 (Histidine-HCl 10 mg/mL, Storage Condition B (25° C./60% RH), Day 7): 98.9%
Percent Purity of [Glu^22,25, Leu^23,28,31, Aib^29, Lys^26,30]hPTHrP(1-34)NH2 (Histidine-HCl 10 mg/mL, Storage Condition B (25° C./60% RH), Day 14): 98.8%
Percent Purity of [Glu^22,25, Leu^23,28,31, Aib^29, Lys^26,30]hPTHrP(1-34)NH2 (Histidine-HCl 10 mg/mL, Storage Condition B (25° C./60% RH), Initial): 99.0%
Percent Purity of [Glu^22,25, Leu^23,28,31, Aib^29, Lys^26,30]hPTHrP(1-34)NH2 (Histidine-HCl none, Storage Condition B (25° C./60% RH), 2 months): 96.3%
Percent Purity of [Glu^22,25, Leu^23,28,31, Aib^29, Lys^26,30]hPTHrP(1-34)NH2 (Histidine-HCl none, Storage Condition B (25° C./60% RH), Day 3): 97.9%
Percent Purity of [Glu^22,25, Leu^23,28,31, Aib^29, Lys^26,30]hPTHrP(1-34)NH2 (Histidine-HCl none, Storage Condition B (25° C./60% RH), Day 7): 98.0%
Percent Purity of [Glu^22,25, Leu^23,28,31, Aib^29, Lys^26,30]hPTHrP(1-34)NH2 (Histidine-HCl none, Storage Condition B (25° C./60% RH), Day 14): 97.7%
Percent Purity of [Glu^22,25, Leu^23,28,31, Aib^29, Lys^26,30]hPTHrP(1-34)NH2 (Histidine-HCl none, Storage Condition B (25° C./60% RH), Day 28): 97.5%
Percent Purity of [Glu^22,25, Leu^23,28,31, Aib^29, Lys^26,30]hPTHrP(1-34)NH2 (Histidine-HCl none, Storage Condition B (25° C./60% RH), Initial): 98.7%
